US11066414B2, “Cot modulators and methods of use thereof” (Gilead Sciences, Inc., priority 2015, dated 2021)

The compounds below were run on TNFα (assay: Cot Monocyte TNFα Cell Based Assay). Details: Homo sapiens, Monocyte, read-out: EC50 TNF, LPS-stimulated human monocytes, TNFα.

Row | Structure (SMILES) | EC50 [nM]
1 | Cc1nc(F)ccc1[C@H](Nc1cc(Cl)c2ncc(C#N)c(N[C@H](C)C(C)(C)C)c2c1)c1cn(C2(C(F)(F)F)CC2)nn1 [Example 582, 8-chloro-4-(((R)-3,3-dimethylbutan-2-yl)amino)-6-(((S)-(6-fluoro-2-methylpyridin-3-yl)(1-(1-(trifluoromethyl)cyclopropyl)-1H-1,2,3-triazol-4-yl)methyl)amino)quinoline-3-carbonitrile] | 184
2 | N#Cc1csc([C@H](Nc2cc(Cl)c3ncc(C#N)c(Nc4ccc(F)c(Cl)c4)c3c2)c2cn(C3COC3)nn2)c1 [Example 339, (R)-8-chloro-4-((3-chloro-4-fluorophenyl)amino)-6-(((4-cyanothiophen-2-yl)(1-(oxetan-3-yl)-1H-1,2,3-triazol-4-yl)methyl)amino)-quinoline-3-carbonitrile] | 1010
3 | Cc1nc(F)ccc1[C@H](Nc1cc(C#N)c2ncc(C#N)c(NCC(C)(C)C#N)c2c1)c1cn(C2(C(F)(F)F)CC2)nn1 [Example 615, (S)-4-((2-cyano-2-methylpropyl)amino)-6-(((6-fluoro-2-methylpyridin-3-yl)(1-(1-(trifluoromethyl)cyclopropyl)-1H-1,2,3-triazol-4-yl)methyl)amino)quinoline-3,8-dicarbonitrile] | 588
4 | CC(C)(C)N1CCC(n2cc([C@@H](Nc3cc(Cl)c4ncc(C#N)c(Nc5ccc(F)c(Cl)c5)c4c3)c3cccc4ncsc34)nn2)CC1 [Example 52, (S)-6-((benzo[d]thiazol-7-yl(1-(1-(tert-butyl)piperidin-4-yl)-1H-1,2,3-triazol-4-yl)methyl)amino)-8-chloro-4-((3-chloro-4-fluorophenyl)amino)quinoline-3-carbonitrile] | 88
5 | CCN1CCC(n2cc(C(Nc3cc(Cl)c4ncc(C#N)c(Nc5ccc(F)c(Cl)c5)c4c3)c3ncccn3)nn2)CC1 (stereo not shown) [Example 367, 8-chloro-4-((3-chloro-4-fluorophenyl)amino)-6-(((1-(1-ethylpiperidin-4-yl)-1H-1,2,3-triazol-4-yl)(pyrimidin-2-yl)methyl)-amino)quinoline-3-carbonitrile] | 338
6 | CC(C)(C)N1CCC(n2cc([C@@H](Nc3cc(Cl)c4ncc(C#N)c(Nc5ccc(F)c(Cl)c5)c4c3)c3cnc(F)c(F)c3)nn2)CC1 [Example 292, (S)-6-(((1-(1-(tert-butyl)piperidin-4-yl)-1H-1,2,3-triazol-4-yl)(5,6-difluoropyridin-3-yl)methyl)amino)-8-chloro-4-((3-chloro-4-fluorophenyl)amino)quinoline-3-carbonitrile] | 327
7 | Cc1nc(F)ccc1[C@H](Nc1cc(F)c2ncc(C#N)c(NCC(C)(C)C)c2c1)c1cn(C2(C#N)CC2)nn1 [Example 485, (S)-6-(((1-(1-cyanocyclopropyl)-1H-1,2,3-triazol-4-yl)(6-fluoro-2-methylpyridin-3-yl)methyl)amino)-8-fluoro-4-(neopentyl-amino)quinoline-3-carbonitrile] | 29
8 | N#Cc1cnc2c(Cl)cc(N[C@@H](C3=CCOCC3)c3c[nH]nn3)cc2c1Nc1cnc(F)c(F)c1 [Example 156, (S)-8-chloro-4-((5,6-difluoropyridin-3-yl)amino)-6-(((3,6-dihydro-2H-pyran-4-yl)(1H-1,2,3-triazol-4-yl)methyl)amino)quinoline-3-carbonitrile] | 1190
9 | Cn1ccc([C@H](Nc2cc(Cl)c3ncc(C#N)c(Nc4ccc(F)c(Cl)c4)c3c2)c2cn(C3CCN(C(C)(C)C)CC3)nn2)n1 [Example 268, (R)-6-(((1-(1-(tert-butyl)piperidin-4-yl)-1H-1,2,3-triazol-4-yl)(1-methyl-1H-pyrazol-3-yl)methyl)amino)-8-chloro-4-((3-chloro-4-fluorophenyl)-amino)quinoline-3-carbonitrile] | 234
10 | Cc1ncccc1[C@H](Nc1cc(Cl)c2ncc(C#N)c(N[C@H](C)c3ccccc3)c2c1)c1c[nH]nn1 [Example 229, 8-chloro-6-(((S)-(2-methylpyridin-3-yl)(1H-1,2,3-triazol-4-yl)methyl)amino)-4-(((R)-1-phenylethyl)amino)quinoline-3-carbonitrile] | 1470
11 | CC(C)n1cc([C@@H](Nc2cc(Cl)c3ncc(C#N)c(Nc4ccc(F)c(Cl)c4)c3c2)c2csc(N3CCOCC3)n2)nn1 [Example 301, (S)-8-chloro-4-((3-chloro-4-fluoro-phenyl)amino)-6-(((1-isopropyl-1H-1,2,3-triazol-4-yl)(2-morpholinothiazol-4-yl)methyl)amino)quinoline-3-carbonitrile] | 414
12 | [2H]C([2H])(Nc1c(C#N)cnc2c(Cl)cc(N[C@@]([2H])(c3ccc(N(C)C)nc3)c3cn(C4CC4)nn3)cc12)C(C)(C)C [Example 679, (S)-8-chloro-6-(((1-cyclopropyl-1H-1,2,3-triazol-4-yl)(6-(dimethylamino)pyridin-3-yl)methyl-d)amino)-4-((2,2-dimethylpropyl-1,1-d2)amino)quinoline-3-carbonitrile] | 710
13 | CC[C@@H](Nc1c(C#N)cnc2c(Cl)cc(N[C@@H](c3cccnc3)c3cn(C4COC4)nn3)cc12)c1ccccc1 [Example 194, 8-chloro-6-(((S)-(1-(oxetan-3-yl)-1H-1,2,3-triazol-4-yl)(pyridin-3-yl)methyl)amino)-4-(((R)-1-phenylpropyl)amino)quinoline-3-carbonitrile] | 111
14 | Cc1nc(C)c([C@H](Nc2cc(Cl)c3ncc(C#N)c(Nc4ccc(F)c(Cl)c4)c3c2)c2cn(C3CCN(C(C)(C)C)CC3)nn2)s1 [Example 261, (R)-6-(((1-(1-(tert-butyl)piperidin-4-yl)-1H-1,2,3-triazol-4-yl)(2,4-dimethyl-thiazol-5-yl)methyl)amino)-8-chloro-4-((3-chloro-4-fluorophenyl)amino)-quinoline-3-carbonitrile] | 344

Further lines, results first:

Row | EC50 [nM] | Structure (SMILES)
15 | 40 | CC(C)n1ccc2c([C@H](Nc3cc(Cl)c4ncc(C#N)c(NCC(C)(C)C)c4c3)c3cn(C4(C)CC4)nn3)cccc2c1=O [Example 774, (S)-8-chloro-6-(((2-isopropyl-1-oxo-1,2-dihydroisoquinolin-5-yl)(1-(1-methylcyclopropyl)-1H-1,2,3-triazol-4-yl)methyl)amino)-4-(neopentyl-amino)quinoline-3-carbonitrile]
16 | 46 | Cn1ccc2c([C@H](Nc3cc(Cl)c4ncc(C#N)c(NCC(C)(C)C)c4c3)c3cn(C(CF)CF)nn3)cccc2c1=O [Example 777, (S)-8-chloro-6-(((1-(1,3-difluoropropan-2-yl)-1H-1,2,3-triazol-4-yl)(2-methyl-1-oxo-1,2-dihydroisoquinolin-5-yl)methyl)amino)-4-(neopentylamino)quinoline-3-carbonitrile]
17 | 422 | Cn1ncc2c([C@H](Nc3cc(Cl)c4ncc(C#N)c(NCC(C)(C)C)c4c3)c3cn(C4(C(F)(F)F)CC4)nn3)cccc21 [Example 543, (S)-8-chloro-6-(((1-methyl-1H-indazol-4-yl)(1-(1-(trifluoromethyl)cyclopropyl)-1H-1,2,3-triazol-4-yl)methyl)amino)-4-(neopentylamino)quinoline-3-carbonitrile]
18 | 177 | COc1ncccc1[C@H](Nc1cc(Cl)c2ncc(C#N)c(NCC(C)(C)C)c2c1)c1cn(C2(C(F)(F)F)CC2)nn1 [Example 782, (S)-8-chloro-6-(((2-methoxypyridin-3-yl)(1-(1-(trifluoromethyl)cyclopropyl)-1H-1,2,3-triazol-4-yl)methyl)amino)-4-(neopentylamino)quinoline-3-carbonitrile]
19 | 133 | Cc1nc(F)ccc1[C@H](Nc1cc(Cl)c2ncc(C#N)c(NCC(C)(C)C)c2c1)c1nnn(C2CC2)c1C [Example 647, (S)-8-chloro-6-(((1-cyclopropyl-5-methyl-1H-1,2,3-triazol-4-yl)(6-fluoro-2-methylpyridin-3-yl)methyl)amino)-4-(neopentylamino)quinoline-3-carbonitrile]

Same assay, conditions: Homo sapiens, Monocyte, read-out: EC50 TNF, LPS-stimulated human monocytes, TNFα TR-FRET

Row | EC50 [nM] | Structure (SMILES)
20 | 135 | CC(C)(C)CNc1c(C#N)cnc2c(Cl)cc(N[C@H](c3nnn(C4(C(F)F)CC4)c3F)c3cccc4ncccc34)cc12 [Example 962, (S)-8-chloro-6-(((1-(1-(difluoromethyl)cyclopropyl)-5-fluoro-1H-1,2,3-triazol-4-yl)(quinolin-5-yl)methyl)amino)-4-(neopentylamino)quinoline-3-carbonitrile]
21 | 116 | CC(C)(C)CNc1c(C#N)cnc2c(C#N)cc(N[C@H](c3cn(C4(C(F)(F)F)CC4)nn3)c3cccc4c(C#N)nccc34)cc12 [Example 817, (S)-6-(((1-cyanoisoquinolin-5-yl)(1-(1-(trifluoromethyl)cyclopropyl)-1H-1,2,3-triazol-4-yl)methyl)amino)-4-(neopentylamino)quinoline-3,8-dicarbonitrile]

Same assay, conditions: read-out: EC50 TNF; LPS-stimulated human monocytes, TNFα

Row | EC50 [nM] | Structure (SMILES)
22 | 27 | CC(C)(C)CNc1c(C#N)cnc2c(C#N)cc(N[C@H](c3cn(C4(C(F)F)CC4)nn3)c3cccc4cnccc34)cc12 [Example 551]

Same assay, conditions: read-out: EC50 TNF; LPS-stimulated human monocytes, TNFα TR-FRET

Row | EC50 [nM] | Structure (SMILES)
23 | 48 | Cn1ccc2c([C@H](Nc3cc(Cl)c4ncc(C#N)c(NCC(C)(C)C)c4c3)c3nnn(C45CC(C4)C5)c3F)cccc2c1=O [Example 961, (S)-6-(((1-(bicyclo[111]pentan-1-yl)-5-fluoro-1H-1,2,3-triazol-4-yl)(2-methyl-1-oxo-1,2-dihydroisoquinolin-5-yl)methyl)amino)-8-chloro-4-(neopentylamino)quinoline-3-carbonitrile]
24 | 205 | COc1nccc2c([C@H](Nc3cc(Cl)c4ncc(C#N)c(NCC(C)(C)C)c4c3)c3cn([C@@H](C)CF)nn3)cccc12 [Example 932, 8-chloro-6-(((S)-(1-((S)-1-fluoropropan-2-yl)-1H-1,2,3-triazol-4-yl)(1-methoxylsoquinolin-5-yl)methyl)amino)-4-(neopentylamino)quinoline-3-carbonitrile]

Same assay, conditions: second value of the cell IC50/EC50; LPS-stimulated human monocytes, TNFα by TR-FRET

Row | IC50/EC50 [nM]: EC50 (TNFα) [nM] | Structure (SMILES)
25 | 310 | CCN1CCC(n2cc(CNc3cc(Cl)c4ncc(C#N)c(Nc5ccc(F)c(Cl)c5)c4c3)nn2)CC1 [Comparative Example 1, reference compound]
